Assays:
[1] = molecular target: T1, recombinant murine FAP protein (Mus musculus, UniProt P97321); test: SPR binding to immobilized recombinant murine FAP protein
T1 construct: purchased ACRO Biosystems FAP-M52H3
T1 sequence (P97321 1-761): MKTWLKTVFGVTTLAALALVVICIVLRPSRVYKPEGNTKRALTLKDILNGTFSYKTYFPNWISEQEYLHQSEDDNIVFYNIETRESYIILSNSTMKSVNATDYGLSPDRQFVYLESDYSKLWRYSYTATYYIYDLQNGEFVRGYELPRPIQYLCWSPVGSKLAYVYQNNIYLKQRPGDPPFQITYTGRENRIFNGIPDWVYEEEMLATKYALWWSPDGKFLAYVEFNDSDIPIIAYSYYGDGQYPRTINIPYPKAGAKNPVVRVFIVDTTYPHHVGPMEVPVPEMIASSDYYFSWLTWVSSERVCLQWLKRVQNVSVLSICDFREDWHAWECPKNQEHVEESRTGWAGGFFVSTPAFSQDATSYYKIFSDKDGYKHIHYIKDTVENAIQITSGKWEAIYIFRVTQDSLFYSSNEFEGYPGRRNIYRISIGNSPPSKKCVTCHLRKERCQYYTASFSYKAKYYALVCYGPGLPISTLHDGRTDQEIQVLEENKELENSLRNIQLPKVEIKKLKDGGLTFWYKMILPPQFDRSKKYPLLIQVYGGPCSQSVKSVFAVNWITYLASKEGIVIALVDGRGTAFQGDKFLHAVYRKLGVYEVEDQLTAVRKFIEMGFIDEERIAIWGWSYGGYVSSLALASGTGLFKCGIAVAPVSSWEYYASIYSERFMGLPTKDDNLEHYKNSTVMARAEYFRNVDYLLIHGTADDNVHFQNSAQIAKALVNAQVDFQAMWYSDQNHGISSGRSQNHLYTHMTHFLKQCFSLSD
Method: (§1) The Biacore SPR interaction study was conducted to determine the binding kinetics between the peptides and the immobilized human FAP protein (FAP-H5244, ACRO Biosystems) or murine FAP protein (FAP-M52H3, ACRO Biosystems) as target antigens. The final binding affinity, represented by the equilibrium dissociation degree (M) or KD, was calculated by examining the relationship between the binding rate constant (ka) (M^−1 s^−1) and the dissociation rate (kd) (s^−1).

[2] = molecular target: T2, recombinant human FAP protein (Homo sapiens, UniProt Q12884); test: SPR binding to immobilized recombinant human FAP protein
T2 construct: purchased ACRO Biosystems FAP-H5244
T2 sequence (Q12884 1-760): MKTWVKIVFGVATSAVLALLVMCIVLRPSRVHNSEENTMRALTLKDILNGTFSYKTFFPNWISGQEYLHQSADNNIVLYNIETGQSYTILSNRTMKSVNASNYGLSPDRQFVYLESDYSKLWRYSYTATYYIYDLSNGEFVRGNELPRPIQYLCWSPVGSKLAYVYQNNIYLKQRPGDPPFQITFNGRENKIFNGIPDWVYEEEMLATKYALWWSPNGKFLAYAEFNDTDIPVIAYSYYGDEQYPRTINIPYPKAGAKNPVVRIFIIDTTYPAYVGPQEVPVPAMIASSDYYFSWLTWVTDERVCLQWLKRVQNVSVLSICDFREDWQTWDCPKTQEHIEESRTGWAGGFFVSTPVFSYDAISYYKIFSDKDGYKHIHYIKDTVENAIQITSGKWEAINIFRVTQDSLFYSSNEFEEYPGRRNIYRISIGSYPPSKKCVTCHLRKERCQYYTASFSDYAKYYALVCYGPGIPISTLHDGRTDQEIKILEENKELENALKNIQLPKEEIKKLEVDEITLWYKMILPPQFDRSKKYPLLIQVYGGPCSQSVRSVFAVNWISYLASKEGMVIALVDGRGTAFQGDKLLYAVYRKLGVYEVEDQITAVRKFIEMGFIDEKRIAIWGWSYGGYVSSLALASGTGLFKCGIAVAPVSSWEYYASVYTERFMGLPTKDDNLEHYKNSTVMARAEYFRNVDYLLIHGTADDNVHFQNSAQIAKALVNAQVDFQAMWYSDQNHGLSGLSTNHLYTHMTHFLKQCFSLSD
Method: as §1

| SMILES | Kd [1] [nM] | Kd [2] [nM] |
| --- | --- | --- |
| CCCCCC(=O)N[C@H]1CSCc2cc(CSCCNC(=O)[C@H](CCCCNC(=O)CCCc3ccc(I)cc3)NC(=O)[C@@H](NC(=O)[C@H](CCSC)NC(=O)CN3CCN(CC(=O)O)CCN(CC(=O)O)CCN(CC(=O)O)CC3)C(C)C)cc(c2)CSC[C@@H](C(=O)O)NC(=O)[C@H](Cc2ccccc2)NC(=O)[C@H](CCC(N)=O)NC(=O)[C@H]([C@@H](C)O)NC(=O)[C@@H]2CCCN2C(=O)[C@@H]2CCCN2C1=O [FD3] | 13.7 | 6.25 |
| CCCCCC(=O)N[C@H]1CSCc2cc(CSCCNC(=O)[C@H](CCCCN)NC(=O)[C@@H](NC(=O)[C@H](CCSC)NC(=O)CN3CCN(CC(=O)O)CCN(CC(=O)O)CCN(CC(=O)O)CC3)C(C)C)cc(c2)CSC[C@@H](C(=O)O)NC(=O)[C@H](Cc2ccccc2)NC(=O)[C@H](CCC(N)=O)NC(=O)[C@H]([C@@H](C)O)NC(=O)[C@@H]2CCCN2C(=O)[C@@H]2CCCN2C1=O [FD1] | 10.2 | 3.3 |
| CCCCCC(=O)N[C@H]1CSCc2cc(CSCCNC(=O)[C@H](CCCCNC(=O)CCCc3ccc(I)cc3)NC(=O)CN3CCN(CC(=O)O)CCN(CC(=O)O)CCN(CC(=O)O)CC3)cc(c2)CSC[C@@H](C(=O)O)NC(=O)[C@H](Cc2ccccc2)NC(=O)[C@H](CCC(N)=O)NC(=O)[C@H]([C@@H](C)O)NC(=O)[C@@H]2CCCN2C(=O)[C@@H]2CCCN2C1=O [FD2] | 11.6 | 2.06 |
